Columns and labels:
[1] = molar heat capacity at constant pressure; details: 101.33 kPa, Small (less than 1 g) adiabatic calorimetry
[2] = for Triple point temperature: Adiabatic calorimetry; for Normal melting temperature: DTA
[3] = Molar enthalpy of transition or fusion

CCC(=O)[c-]1cccc1.[Fe+2].c1cc[cH-]c1 [propanoylferrocene]
Details	Molar enthalpy of transition or fusion [kcal/mol]	molar heat capacity at constant pressure [J/K/mol]
[1], 10 K, Crystal	–	4.607
[1], 15 K, Crystal	–	11.25
[1], 20 K, Crystal	–	18.61
[1], 25 K, Crystal	–	26.27
[1], 30 K, Crystal	–	34.16
[1], 35 K, Crystal	–	42.07
[1], 40 K, Crystal	–	49.63
[1], 45 K, Crystal	–	56.35
[1], 50 K, Crystal	–	61.76
[1], 55 K, Crystal	–	66.08
[1], 60 K, Crystal	–	70.11
[1], 65 K, Crystal	–	74.36
[1], 70 K, Crystal	–	79.11
[1], 75 K, Crystal	–	84.35
[1], 80 K, Crystal	–	89.8
[1], 90 K, Crystal	–	99.79
[1], 100 K, Crystal	–	108.7
[1], 110 K, Crystal	–	116.7
[1], 120 K, Crystal	–	124.2
[1], 130 K, Crystal	–	131.6
[1], 140 K, Crystal	–	138.9
[1], 150 K, Crystal	–	146.4
[1], 160 K, Crystal	–	154
[1], 170 K, Crystal	–	161.9
[1], 180 K, Crystal	–	170
[1], 190 K, Crystal	–	178.3
[1], 200 K, Crystal	–	186.8
[1], 210 K, Crystal	–	195.4
[1], 220 K, Crystal	–	204.1
[1], 230 K, Crystal	–	212.9
[1], 240 K, Crystal	–	221.9
[1], 250 K, Crystal	–	231
[1], 260 K, Crystal	–	240.3
[1], 270 K, Crystal	–	250.1
[1], 280 K, Crystal	–	260.5
[1], 290 K, Crystal	–	271.7
[1], 298.15 K, Crystal	–	280.7
[1], 300 K, Crystal	–	282.7
[1], 310 K, Crystal	–	293.8
[1], 311.13 K, Crystal	–	295
[1], 311.13 K, Liquid	–	347.6
[1], 320 K, Liquid	–	353.3
[1], 330 K, Liquid	–	359.7
[1], 340 K, Liquid	–	365.7
[1], 350 K, Liquid	–	372.9
[1], 360 K, Liquid	–	378.5
[1], 370 K, Liquid	–	381.9
[3], Crystal, Adiabatic calorimetry	3.04	–
[3], Crystal, DSC	3.51	–

[2], Crystal
Details	Normal melting temperature [°C]	Triple point temperature [K]
–	5.1	276.83

CCC[c-]1cccc1.[Fe+2].c1cc[cH-]c1 [propylferrocene]
[1]
Details	molar heat capacity at constant pressure [J/K/mol]
5 K, Crystal 2	0.5339
10 K, Crystal 2	3.806
15 K, Crystal 2	11.48
20 K, Crystal 2	20.55
25 K, Crystal 2	29.5
30 K, Crystal 2	37.6
35 K, Crystal 2	44.82
40 K, Crystal 2	51.46
45 K, Crystal 2	57.41
50 K, Crystal 2	62.94
55 K, Crystal 2	68.11
60 K, Crystal 2	72.96
65 K, Crystal 2	77.55
70 K, Crystal 2	81.91
75 K, Crystal 2	86.11
80 K, Crystal 2	89.89
90 K, Crystal 2	98.25
100 K, Crystal 2	106.2
110 K, Crystal 2	114.1
120 K, Crystal 2	122
130 K, Crystal 2	130.2
140 K, Crystal 2	139.3
150 K, Crystal 2	149.6
160 K, Crystal 2	161.7
170 K, Crystal 2	173.8
180 K, Crystal 2	185.9
186.7 K, Crystal 1	191.3
186.7 K, Crystal 2	194
190 K, Crystal 1	193.3
200 K, Crystal 1	199.5
210 K, Crystal 1	205.6
220 K, Crystal 1	212.1
230 K, Crystal 1	220.2
240 K, Crystal 1	230.2
250 K, Crystal 1	244.6
260 K, Crystal 1	274.7
270 K, Crystal 1	324
276.03 K, Crystal 1	286.8
276.03 K, Liquid	305.9
280 K, Liquid	308.4
290 K, Liquid	314.9
298.15 K, Liquid	319.5
300 K, Liquid	320.5
310 K, Liquid	325.8
320 K, Liquid	331.8
330 K, Liquid	338.2
340 K, Liquid	344.4
350 K, Liquid	350.7
360 K, Liquid	356.6
370 K, Liquid	361.5

Details	Molar enthalpy of transition or fusion, Crystal 1, Adiabatic calorimetry [kcal/mol]	Molar enthalpy of transition or fusion, Crystal 1, DSC [kcal/mol]	Molar enthalpy of transition or fusion, Crystal 2, Adiabatic calorimetry [kcal/mol]	Normal melting temperature, Crystal 1 [°C]	Triple point temperature, Crystal 1 [K]	Triple point temperature, Crystal 2 [K]
[2]	–	–	–	38.47	311.62	186.7
[3]	4.58	4.71	0.294	–	–	–
